Measured values reported in PubChem BioAssay AID342 (DTP/NCI, 2004).
“And” between values parts separate entries of the source, which are not always exact repeats. Equal entries are not always repeated.

System: Swiss mice, Sarcoma 180 sc, mean tumor weight T/C
Experiment: NCI In Vivo Anticancer Drug Screen. Data for tumor model Sarcoma 180 (subcutaneous) in Swiss mice
Details: endpoint: mean tumor weight, higher = larger tumour
Procedure, shortened: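 Readout is the ratio of treated-group measurement to vehicle-control measurement (T/C), based on survival or tumor size in mice carrying transplanted tumors.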

Question: What does the source list for `c1ncc2[nH]cnc2n1`?
Answer: T/C (dose: 31.25 mg/kg/injection, schedule: Q#A X014 (ip), vehicle: carboxymethylcellulose (CMC)): 90 % of control; T/C (dose: 31.31 mg/kg/injection, schedule: Q#A X014 (ip), vehicle: carboxymethylcellulose (CMC)): 108 % of control; T/C (dose: 57.5 mg/kg/injection, schedule: Q01DX007 (ip), vehicle: carboxymethylcellulose (CMC)): 70 % of control; T/C (dose: 62.5 mg/kg/injection, schedule: Q#A X014 (ip), vehicle: carboxymethylcellulose (CMC)): 120 % of control; T/C (dose: 62.62 mg/kg/injection, schedule: Q#A X014 (ip), vehicle: carboxymethylcellulose (CMC)): 91 % of control; T/C (dose: 76.65 mg/kg/injection, schedule: Q#A X014 (ip), vehicle: carboxymethylcellulose (CMC)): 120 % of control; T/C (dose: 115.0 mg/kg/injection, schedule: Q01DX007 (ip), vehicle: carboxymethylcellulose (CMC)): 67 % of control; T/C (dose: 115.0 mg/kg/injection, schedule: Q#A X014 (ip), vehicle: carboxymethylcellulose (CMC)): 93 % of control; T/C (dose: 125.0 mg/kg/injection, schedule: Q#A X014 (ip), vehicle: carboxymethylcellulose (CMC)): 59 % of control; T/C (dose: 125.25 mg/kg/injection, schedule: Q#A X014 (ip), vehicle: carboxymethylcellulose (CMC)): 66 % of control; T/C (dose: 153.3 mg/kg/injection, schedule: Q#A X014 (ip), vehicle: carboxymethylcellulose (CMC)): 95 % of control; T/C (dose: 196.4 mg/kg/injection, schedule: Q01DX007 (ip), vehicle: carboxymethylcellulose (CMC)): 88 % of control; T/C (dose: 200.4 mg/kg/injection, schedule: Q01DX007 (ip), vehicle: carboxymethylcellulose (CMC)): 99 % of control; T/C (dose: 230.0 mg/kg/injection, schedule: Q01DX007 (ip), vehicle: carboxymethylcellulose (CMC)): 42 % of control; T/C (dose: 230.0 mg/kg/injection, schedule: Q#A X014 (ip), vehicle: carboxymethylcellulose (CMC)): 39 % of control; T/C (dose: 245.5 mg/kg/injection, schedule: Q01DX007 (ip), vehicle: carboxymethylcellulose (CMC)): 90 % of control; T/C (dose: 250.0 mg/kg/injection, schedule: Q#A X014 (ip), vehicle: carboxymethylcellulose (CMC)): 27 % of control; T/C (dose: 250.5 mg/kg/injection, schedule: Q01DX007 (ip), vehicle: carboxymethylcellulose (CMC)): 111 % of control; T/C (dose: 250.5 mg/kg/injection, schedule: Q#A X014 (ip), vehicle: carboxymethylcellulose (CMC)): 9 % of control; T/C (dose: 327.3 mg/kg/injection, schedule: Q01DX007 (ip), vehicle: carboxymethylcellulose (CMC)): 44 % of control; T/C (dose: 334.0 mg/kg/injection, schedule: Q01DX007 (ip), vehicle: carboxymethylcellulose (CMC)): 68 % of control; T/C (dose: 460.0 mg/kg/injection, schedule: Q01DX007 (ip), vehicle: carboxymethylcellulose (CMC)): 13 % of control; T/C (dose: 491.0 mg/kg/injection, schedule: Q01DX007 (ip), vehicle: carboxymethylcellulose (CMC)): 48 % of control; T/C (dose: 501.0 mg/kg/injection, schedule: Q01DX007 (ip), vehicle: carboxymethylcellulose (CMC)): 12 % of control

Question: With `O=c1[nH]c(Cl)ncc1F` as the compound, how does the T/C (dose: 22.0 mg/kg/injection, schedule: Q01DX007 (ip), vehicle: saline) read?
Answer: 36 % of control

Question: And the T/C (dose: 33.0 mg/kg/injection, schedule: Q01DX007 (ip), vehicle: saline)?
Answer: 46 % of control

Question: What about the T/C (dose: 50.0 mg/kg/injection, schedule: Q01DX007 (ip), vehicle: saline) of the same compound?
Answer: 29 % of control

Question: And the T/C (dose: 75.0 mg/kg/injection, schedule: Q01DX007 (ip), vehicle: saline)?
Answer: 5 % of control

Question: Which results are given for `NCC(O)c1ccc(O)c(O)c1` (stereo not drawn)?
Answer: T/C (dose: 3.1 mg/kg/injection, schedule: Q01DX007 (ip), vehicle: saline): 84 % of control; T/C (dose: 12.5 mg/kg/injection, schedule: Q01DX007 (ip), vehicle: saline): 57 % of control and 77 % of control

Question: What does the source list for `C[C@]12C=CC(=O)C=C1[C@@H](F)C[C@@H]1[C@@H]2[C@@H](O)C[C@@]2(C)[C@H]1CC[C@]2(O)C(=O)CO`?
Answer: T/C (dose: 3.5 mg/kg/injection, schedule: Q#A X014 (sc), vehicle: steriod suspending solution): 85 % of control; T/C (dose: 7.0 mg/kg/injection, schedule: Q#A X014 (sc), vehicle: steriod suspending solution): 98 % of control; T/C (dose: 10.0 mg/kg/injection, schedule: Q#A X014 (sc), vehicle: steriod suspending solution): 76 % of control; T/C (dose: 15.5 mg/kg/injection, schedule: Q#A X014 (sc), vehicle: steriod suspending solution): 72 % of control; T/C (dose: 22.5 mg/kg/injection, schedule: Q#A X014 (sc), vehicle: steriod suspending solution): 67 % of control

Question: What does the source list for `COc1ccc2c(c1O)-c1c(OC)c(OC)cc3c1[C@H](C2)[N+](C)(C)CC3`?
Answer: T/C (dose: 2.5 mg/kg/injection, schedule: Q01DX007 (ip), vehicle: saline): 108 % of control; T/C (dose: 5.0 mg/kg/injection, schedule: Q01DX007 (ip), vehicle: saline): 100 % of control

Question: Which results are given for `CN(C)C1C(=O)C(C(N)=O)=C(O)C2(O)C(=O)C3=C(O)c4c(O)cccc4C(C)(O)C3C(O)C12` (stereo not drawn)?
Answer: T/C (dose: 15.12 mg/kg/injection, schedule: Q01DX007 (ip), vehicle: carboxymethylcellulose (CMC)): 98 % of control; T/C (dose: 17.5 mg/kg/injection, schedule: Q01DX007 (ip), vehicle: carboxymethylcellulose (CMC)): 111 % of control; T/C (dose: 31.25 mg/kg/injection, schedule: Q01DX007 (ip), vehicle: carboxymethylcellulose (CMC)): 124 % of control; T/C (dose: 35.0 mg/kg/injection, schedule: Q01DX007 (ip), vehicle: carboxymethylcellulose (CMC)): 105 % of control; T/C (dose: 62.5 mg/kg/injection, schedule: Q01DX007 (ip), vehicle: carboxymethylcellulose (CMC)): 117 % of control; T/C (dose: 70.0 mg/kg/injection, schedule: Q01DX007 (ip), vehicle: carboxymethylcellulose (CMC)): 102 % of control; T/C (dose: 125.0 mg/kg/injection, schedule: Q01DX007 (ip), vehicle: carboxymethylcellulose (CMC)): 50 % of control; T/C (dose: 140.0 mg/kg/injection, schedule: Q01DX007 (ip), vehicle: carboxymethylcellulose (CMC)): 79 % of control

Question: Which T/C (dose: 0.62 mg/kg/injection, schedule: Q#A X014 (ip), vehicle: carboxymethylcellulose (CMC)) does the source give for `Nc1nc(=S)c2ncn(C3OC(CO)C(O)C3O)c2[nH]1` (stereo not drawn) here?
Answer: 86 % of control

Question: And the T/C (dose: 1.25 mg/kg/injection, schedule: Q#A X014 (ip), vehicle: carboxymethylcellulose (CMC))?
Answer: 91 % of control

Question: What about the T/C (dose: 1.3 mg/kg/injection, schedule: Q#A X014 (ip), vehicle: carboxymethylcellulose (CMC)) of the same compound?
Answer: 86 % of control and 95 % of control

Question: What about the T/C (dose: 2.0 mg/kg/injection, schedule: Q#A X014 (ip), vehicle: carboxymethylcellulose (CMC)) of the same compound?
Answer: 83 % of control and 94 % of control

Question: What about the T/C (dose: 2.5 mg/kg/injection, schedule: Q#A X014 (ip), vehicle: carboxymethylcellulose (CMC)) of the same compound?
Answer: 86 % of control

Question: What about the T/C (dose: 2.65 mg/kg/injection, schedule: Q#A X014 (ip), vehicle: carboxymethylcellulose (CMC)) of the same compound?
Answer: 51 % of control and 74 % of control

Question: What about the T/C (dose: 5.0 mg/kg/injection, schedule: Q#A X014 (ip), vehicle: carboxymethylcellulose (CMC)) of the same compound?
Answer: 90 % of control

Question: Which T/C (dose: 111.0 mg/kg/injection, schedule: Q#A X014 (ip), vehicle: methylcellulose (MC)) does the source give for `Cc1ccc(NCC2(/N=C/c3ccccc3)OC(CO)C(O)C2O)cc1` (stereo not drawn) here?
Answer: 71 % of control and 72 % of control

Question: And the T/C (dose: 250.0 mg/kg/injection, schedule: Q#A X014 (ip), vehicle: methylcellulose (MC))?
Answer: 67 % of control and 90 % of control

Question: Which results are given for `Cc1cc2nc(Cc3nc4cc(C)c(C)cc4[nH]3)[nH]c2cc1C`?
Answer: T/C (dose: 20.0 mg/kg/injection, schedule: Q01DX007 (ip), vehicle: carboxymethylcellulose (CMC)): 86 % of control; T/C (dose: 40.0 mg/kg/injection, schedule: Q01DX007 (ip), vehicle: carboxymethylcellulose (CMC)): 85 % of control; T/C (dose: 60.0 mg/kg/injection, schedule: Q01DX007 (ip), vehicle: carboxymethylcellulose (CMC)): 80 % of control and 81 % of control; T/C (dose: 80.0 mg/kg/injection, schedule: Q01DX007 (ip), vehicle: carboxymethylcellulose (CMC)): 102 % of control; T/C (dose: 90.0 mg/kg/injection, schedule: Q01DX007 (ip), vehicle: carboxymethylcellulose (CMC)): 67 % of control; T/C (dose: 120.0 mg/kg/injection, schedule: Q01DX007 (ip), vehicle: carboxymethylcellulose (CMC)): 122 % of control; T/C (dose: 160.0 mg/kg/injection, schedule: Q01DX007 (ip), vehicle: carboxymethylcellulose (CMC)): 77 % of control; T/C (dose: 180.0 mg/kg/injection, schedule: Q01DX007 (ip), vehicle: carboxymethylcellulose (CMC)): 89 % of control; T/C (dose: 210.0 mg/kg/injection, schedule: Q01DX007 (ip), vehicle: carboxymethylcellulose (CMC)): 61 % of control; T/C (dose: 270.0 mg/kg/injection, schedule: Q01DX007 (ip), vehicle: carboxymethylcellulose (CMC)): 77 % of control; T/C (dose: 320.0 mg/kg/injection, schedule: Q01DX007 (ip), vehicle: carboxymethylcellulose (CMC)): 90 % of control and 100 % of control; T/C (dose: 478.0 mg/kg/injection, schedule: Q01DX007 (ip), vehicle: carboxymethylcellulose (CMC)): 57 % of control; T/C (dose: 717.0 mg/kg/injection, schedule: Q01DX007 (ip), vehicle: carboxymethylcellulose (CMC)): 65 % of control

Question: How did the T/C (dose: 7.0 mg/kg/injection, schedule: Q01DX007 (ip), vehicle: saline) turn out when `CCCCN(C)N=Nc1ccc(OCC(=O)OCC)cc1` was run?
Answer: 111 % of control

Question: And the T/C (dose: 10.0 mg/kg/injection, schedule: Q01DX007 (ip), vehicle: saline)?
Answer: 93 % of control

Question: What about the T/C (dose: 15.0 mg/kg/injection, schedule: Q01DX007 (ip), vehicle: saline) of the same compound?
Answer: 111 % of control

Question: What about the T/C (dose: 23.0 mg/kg/injection, schedule: Q01DX007 (ip), vehicle: saline) of the same compound?
Answer: 95 % of control

Question: `OC1C(O)C(O)C2(CO2)C(O)C1O` (stereo not drawn) was tested. Which T/C (dose: 150.0 mg/kg/injection, schedule: Q#A X014 (ip), vehicle: saline) did it give?
Answer: 122 % of control

Question: And the T/C (dose: 300.0 mg/kg/injection, schedule: Q#A X014 (ip), vehicle: saline)?
Answer: 79 % of control
